Drawing on patent US20260109694A1, “HETEROCYCLIC COMPOUNDS AND USES THEREOF” (Kumquat Biosciences Inc., priority 2023, published 2026), this text covers IC50 for 16 compounds.

The target of one experiment is T1, PTP1B (Homo sapiens, UniProt P18031).
T1 sequence (P18031 1-435): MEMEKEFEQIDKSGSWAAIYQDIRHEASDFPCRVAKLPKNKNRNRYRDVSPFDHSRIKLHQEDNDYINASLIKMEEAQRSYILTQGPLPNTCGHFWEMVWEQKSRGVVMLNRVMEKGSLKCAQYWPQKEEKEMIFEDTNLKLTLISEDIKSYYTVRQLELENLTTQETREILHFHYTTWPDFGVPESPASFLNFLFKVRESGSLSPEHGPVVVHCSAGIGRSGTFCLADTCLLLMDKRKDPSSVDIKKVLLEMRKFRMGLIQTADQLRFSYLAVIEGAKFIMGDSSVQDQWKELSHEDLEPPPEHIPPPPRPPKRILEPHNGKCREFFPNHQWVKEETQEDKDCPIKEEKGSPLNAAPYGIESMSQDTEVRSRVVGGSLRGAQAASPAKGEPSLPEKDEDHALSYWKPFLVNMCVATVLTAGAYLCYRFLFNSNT
Briefly: Phosphatase activity assay (DiFMUP substrate). Type of experiment: biochemical. Particulars: value bin printed in column head. The method, then: (§1) The selectivity and potency of a small molecule PTPN2 inhibitor as provided herein against one or more protein tyrosine phosphatase (PTP) enzymes, and specifically against PTPN2, is assessed in various ways. The one or more PTP enzymes comprise Mycobacterium protein tyrosine phosphatase A (mPTPA), Mycobacterium protein tyrosine phosphatase B (mPTPB), PTPN1 (i.e., PTP1B), PTPN2 (i.e., TC-PTP), PTPN22 (i.e., LYP), SHP-1, SHP-2, FAP-1, Meg2, HePTP, Laforin, VHX, VHR, LMWPTP, Cdc14A, LAR, CD45, PTPRG, a fragment thereof, a variant thereof, and a combination thereof. Selectivity and potency of a small molecule PTPN2 inhibitor is evaluated using a PTP activity inhibition assay. The assay is performed using a buffer comprising 50 mM HEPES buffer pH 7.5, 150 mM NaCl, 0.5 mM EDTA, 1 mM DTT, 0.001% Tween-20.
(§2) The assay is performed using a phosphated substrate, e.g., 10 mM 6,8-Difluoro-4-Methylumbelliferyl Phosphate (DIFMUP) that is stored at −20° C. Alternatively or in addition to, the assay is performed using other phosphated substrate (e.g., fluorescein diphosphate). Each PTP enzyme is diluted in the assay buffer
(§3) The assay can be carried out at room temperature in multiplate format, e.g., using 384 well plates. A small molecule PTPN2 inhibitor dissolved in DMSO at one of 10 concentrations from a serial dilution or DMSO alone for control is added to each well. A mixture of the assay buffer comprising PTP enzyme (e.g., 0.025 ng/ul PTPN2) is added to each well and mixed for approximately 2 minutes. The reaction is initiated by adding DiFMUP diluted in the assay buffer to a final concentration of approximately 45 µM DiFMUP in PTPN2 assay. For each PTP enzyme, DiFMUP is added at the Km (Michaelis constant) of the enzyme that had been independently determined. The phosphatase activity of the PTP enzyme is assessed by monitoring appearance of a fluorescent product (6,8-difluoro-7-hydroxyl-4-coumarin (DiFMU) from DiFMUP) continuously for about 15 to 30 minutes, using the INFINITE M1000Pro plate reader (Tecan) with excitation at 360 nm and emission at 450 nm (cutoff filter at 435 nm) for DiFMU. Each assay is performed at least in duplicate. The rate (e.g., the initial rate) of DiFMU formation is plotted against the concentration of the small molecule PTPN2 inhibitor, and the data is fitted (e.g., using a 4-parameter equation) to determine the inflection point of the fit as the IC50 of the small molecule PTPN2 inhibitor for a specific enzyme. Utilizing this assay, the ability of the compounds in Table 1 to inhibit PTPN2 and PTP1B has been assessed. Table 3 summarizes the IC50 values.

Another experiment deals with T2, PTPN2 (Homo sapiens, UniProt P17706).
T2 sequence (P17706 1-415): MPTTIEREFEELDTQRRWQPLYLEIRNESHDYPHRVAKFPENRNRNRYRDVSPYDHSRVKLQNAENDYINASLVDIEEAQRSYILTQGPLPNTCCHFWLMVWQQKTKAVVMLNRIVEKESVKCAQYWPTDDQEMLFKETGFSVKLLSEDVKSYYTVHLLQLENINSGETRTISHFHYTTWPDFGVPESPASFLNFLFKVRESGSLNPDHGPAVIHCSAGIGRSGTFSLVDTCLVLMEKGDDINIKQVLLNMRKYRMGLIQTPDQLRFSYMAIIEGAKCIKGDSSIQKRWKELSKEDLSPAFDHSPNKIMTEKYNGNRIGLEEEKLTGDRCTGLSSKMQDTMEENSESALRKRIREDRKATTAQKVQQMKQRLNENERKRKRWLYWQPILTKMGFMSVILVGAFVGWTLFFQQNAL
The experiment can be described thus: Phosphatase activity assay (DiFMUP substrate). Format: biochemical. Particulars: value bin printed in column head. The method, then: as §1, §2, §3

pIC50: −log10 of the molar value. A value given as a limit tells only on which side of the number the result lay.

Usually pIC50 stands for the IC50 on a negative log10 scale, so that one unit is a factor of ten. As for `O=C1CN(c2c(O)ccc(C3=CC4CCCN4C3)c2F)S(=O)(=O)N1` (centres unmarked) [Compound 139, 5-(2-fluoro-6-hydroxy-3-(2,3,5,7a-tetrahydro-1H-pyrrolizin-6-yl)phenyl)-1,2,5-thiadiazolidin-3-one 1,1-dioxide], the pIC50 on PTP1B and at PTPN2 was not below 6.00 throughout.
For `O=C1CN(c2c(O)cc(CC3CCNC3)cc2F)S(=O)(=O)N1` (centres unmarked) [Compound 140, 5-(2-fluoro-6-hydroxy-4-(pyrrolidin-3-ylmethyl)phenyl)-1,2,5-thiadiazolidin-3-one 1,1-dioxide], the pIC50 at PTP1B and on PTPN2 was not below 6.00 in each case.
Regarding `O=C1CN(c2c(O)ccc(CC3CCNC3)c2F)S(=O)(=O)N1` (centres unmarked) [Compound 141, 5-(2-fluoro-6-hydroxy-3-(pyrrolidin-3-ylmethyl)phenyl)-1,2,5-thiadiazolidin-3-one 1,1-dioxide], the pIC50 at PTP1B and at PTPN2 was not below 6.00 in each case.
Consider `O=C1CN(c2c(O)ccc(OC3CCNC3)c2F)S(=O)(=O)N1` (centres unmarked) [Compound 142, 5-(2-fluoro-6-hydroxy-3-(pyrrolidin-3-yloxy)phenyl)-1,2,5-thiadiazolidin-3-one 1,1-dioxide], for which the pIC50 on PTP1B was not below 6.00; on PTPN2, less than 6.00.
For `CC(C)C(=O)O[C@@H](C)OC(=O)N1CC(c2ccc(O)c(N3CC(=O)NS3(=O)=O)c2F)=C[C@H]1CCC1CC1` [Compound 143, (R)-1-(isobutyryloxy)ethyl (R)-2-(2-cyclopropylethyl)-4-(3-(1,1-dioxido-4-oxo-1,2,5-thiadiazolidin-2-yl)-2-fluoro-4-hydroxyphenyl)-2,5-dihydro-1H-pyrrole-1-carboxylate], the pIC50 at PTP1B and on PTPN2 was not below 6.00 in each case.
For the compound `CC(C)[C@H](N)C(=O)NCC(=O)N1CC(c2ccc(O)c(N3CC(=O)NS3(=O)=O)c2F)=C[C@H]1CCC1CCC1` [Compound 144, (S)-2-amino-N-(2-((R)-2-(2-cyclobutylethyl)-4-(3-(1,1-dioxido-4-oxo-1,2,5-thiadiazolidin-2-yl)-2-fluoro-4-hydroxyphenyl)-2,5-dihydro-1H-pyrrol-1-yl)-2-oxoethyl)-3-methylbutanamide], the pIC50 on PTP1B and on PTPN2 was not below 6.00 in each case.
Turning to `CC(C)CC[C@H]1C=C(c2ccc(O)c(N3CC(=O)NS3(=O)=O)c2F)CN1` [Compound 145, (S)-5-(2-fluoro-6-hydroxy-3-(5-isopentyl-2,5-dihydro-1H-pyrrol-3-yl)phenyl)-1,2,5-thiadiazolidin-3-one 1,1-dioxide], the pIC50 at PTP1B and on PTPN2 was not below 6.00 in each case.
Take `CC(C)CC[C@H]1C=C(c2ccc(O)c(N3CC(=O)NS3(=O)=O)c2F)CN1C(=O)OC(OC(=O)[C@H](N)C(C)C)C(C)C` (stereo partly drawn) [Compound 146, 1-((D-valyl)oxy)-2-methylpropyl (2S)-4-(3-(1,1-dioxido-4-oxo-1,2,5-thiadiazolidin-2-yl)-2-fluoro-4-hydroxyphenyl)-2-isopentyl-2,5-dihydro-1H-pyrrole-1-carboxylate]: the pIC50 on PTP1B and on PTPN2 was not below 6.00 in each case.
In the case of `CC(OC(=O)[C@H](N)C(C)C)OC(=O)N1CC(c2ccc(O)c(N3CC(=O)NS3(=O)=O)c2F)=C[C@H]1CCC1CCC1` (stereo partly drawn) [Compound 147, 1-((D-valyl)oxy)ethyl (2R)-2-(2-cyclobutylethyl)-4-(3-(1,1-dioxido-4-oxo-1,2,5-thiadiazolidin-2-yl)-2-fluoro-4-hydroxyphenyl)-2,5-dihydro-1H-pyrrole-1-carboxylate], the pIC50 on PTP1B and at PTPN2 was not below 6.00 throughout.
With `CC(C)CC[C@H]1C=C(c2ccc(O)c(N3CC(=O)NS3(=O)=O)c2F)CN1C(=O)O[C@H](C)OC(=O)C(C)C` [Compound 148, (R)-1-(isobutyryloxy)ethyl (S)-4-(3-(1,1-dioxido-4-oxo-1,2,5-thiadiazolidin-2-yl)-2-fluoro-4-hydroxyphenyl)-2-isopentyl-2,5-dihydro-1H-pyrrole-1-carboxylate], the pIC50 on PTP1B and on PTPN2 was not below 6.00 in each case.
Regarding `CC(C)[C@@H](N)C(=O)NCC(=O)N1CC(c2ccc(O)c(N3CC(=O)NS3(=O)=O)c2F)=C[C@H]1CCC1CCC1` [Compound 149, (R)-2-amino-N-(2-((R)-2-(2-cyclobutylethyl)-4-(3-(1,1-dioxido-4-oxo-1,2,5-thiadiazolidin-2-yl)-2-fluoro-4-hydroxyphenyl)-2,5-dihydro-1H-pyrrol-1-yl)-2-oxoethyl)-3-methylbutanamide], the pIC50 on PTP1B and at PTPN2 was not below 6.00 in each case.
Consider `CC(C)C(=O)OC(OC(=O)N1CC(c2ccc(O)c(N3CC(=O)NS3(=O)=O)c2F)=C[C@H]1CCC1CCC1)C(C)C` (stereo partly drawn) [Compound 150, 1-(isobutyryloxy)-2-methylpropyl (2R)-2-(2-cyclobutylethyl)-4-(3-(1,1-dioxido-4-oxo-1,2,5-thiadiazolidin-2-yl)-2-fluoro-4-hydroxyphenyl)-2,5-dihydro-1H-pyrrole-1-carboxylate], for which the pIC50 on PTP1B and at PTPN2 was not below 6.00 throughout.
Consider `CC(C)C(=O)O[C@@H](C)OC(=O)N1CC(c2ccc(O)c(N3CC(=O)NS3(=O)=O)c2F)=C[C@@H]1CCC1CC1` [Compound 151, (R)-1-(isobutyryloxy)ethyl (S)-2-(2-cyclopropylethyl)-4-(3-(1,1-dioxido-4-oxo-1,2,5-thiadiazolidin-2-yl)-2-fluoro-4-hydroxyphenyl)-2,5-dihydro-1H-pyrrole-1-carboxylate], for which the pIC50 on PTP1B and on PTPN2 was not below 6.00 each time.
For the compound `CC(C)CC[C@H]1C=C(c2ccc(O)c(N3CC(=O)NS3(=O)=O)c2F)CN1C(=O)O[C@@H](C)OC(=O)C1CCCC1` [Compound 152, (S)-1-((cyclopentanecarbonyl)oxy)ethyl (S)-4-(3-(1,1-dioxido-4-oxo-1,2,5-thiadiazolidin-2-yl)-2-fluoro-4-hydroxyphenyl)-2-isopentyl-2,5-dihydro-1H-pyrrole-1-carboxylate], the pIC50 on PTP1B was not below 6.00; at PTPN2 it was less than 6.00.
As to `CC(C)CC[C@H]1C=C(c2ccc(O)c(N3CC(=O)NS3(=O)=O)c2F)CN1C(=O)OC(C)OC(=O)C1CCCC1` (stereo partly drawn) [Compound 153, 1-((cyclopentanecarbonyl)oxy)ethyl (2S)-4-(3-(1,1-dioxido-4-oxo-1,2,5-thiadiazolidin-2-yl)-2-fluoro-4-hydroxyphenyl)-2-isopentyl-2,5-dihydro-1H-pyrrole-1-carboxylate], the pIC50 on PTP1B and on PTPN2 was less than 6.00 each time.
`CC(C)CC[C@H]1C=C(c2ccc(O)c(N3CC(=O)NS3(=O)=O)c2F)CN1C(=O)O[C@@H](C)OC(=O)C(C)C` [Compound 154, (S)-1-(isobutyryloxy)ethyl (S)-4-(3-(1,1-dioxido-4-oxo-1,2,5-thiadiazolidin-2-yl)-2-fluoro-4-hydroxyphenyl)-2-isopentyl-2,5-dihydro-1H-pyrrole-1-carboxylate]: the pIC50 at PTP1B and at PTPN2 was not below 6.00 each time.
